Assay results as given in ChEMBL document CHEMBL1201862, “PubChem BioAssay data set” (2004).
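Exposure lasted 48 hours, with cells grown in 96-well plates and compounds tested at five concentrations. The concentration for 50% growth inhibition is given as GI50.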 The source made the active and inactive calls. No stated cut-off is given here; in the data, active = GI50 up to about 1.1 µM and inactive = higher.

Assays:
Assay in all cases: inhibition of tumour cell growth, NCI panel, 48 h
NCI-H226 = tested on: NCI-H226
UO-31 = tested on: UO-31
U-251 = tested on: U-251
RXF 393 = tested on: RXF 393
TK-10 = tested on: TK-10
SF-268 = tested on: SF-268
HT-29 = tested on: HT-29
PC-3 = tested on: PC-3
OVCAR-4 = tested on: OVCAR-4
SN12C = tested on: SN12C
LOX IMVI = tested on: LOX IMVI
SW-620 = tested on: SW-620
Hs-578T = tested on: Hs-578T
NCI-H522 = tested on: NCI-H522
MDA-MB-231 = tested on: MDA-MB-231
UACC-62 = tested on: UACC-62
SNB-19 = tested on: SNB-19
MDA-N = tested on: MDA-N
Malme-3M = tested on: Malme-3M
UACC-257 = tested on: UACC-257
HCC 2998 = tested on: HCC 2998
SK-MEL-2 = tested on: SK-MEL-2
K562 = tested on: K562
HOP-92 = tested on: HOP-92
OVCAR-5 = tested on: OVCAR-5
NCI-H460 = tested on: NCI-H460
SNB-75 = tested on: SNB-75
RPMI-8226 = tested on: RPMI-8226
SR = tested on: SR
HOP-62 = tested on: HOP-62
CAKI-1 = tested on: CAKI-1
HL-60 = tested on: HL-60
BT-549 = tested on: BT-549
NCI/ADR-RES = tested on: NCI/ADR-RES
DU-145 = tested on: DU-145
MOLT-4 = tested on: MOLT-4
A498 = tested on: A498
OVCAR-8 = tested on: OVCAR-8
SF-539 = tested on: SF-539
M14 = tested on: M14
OVCAR-3 = tested on: OVCAR-3
EKVX = tested on: EKVX
COLO 205 = tested on: COLO 205
HCT-15 = tested on: HCT-15
ACHN = tested on: ACHN
HCT-116 = tested on: HCT-116
T47D = tested on: T47D
KM12 = tested on: KM12
SK-MEL-28 = tested on: SK-MEL-28
786-0 = tested on: 786-0
MCF7 = tested on: MCF7
NCI-H23 = tested on: NCI-H23
MDA-MB-435 = tested on: MDA-MB-435
CCRF-CEM = tested on: CCRF-CEM
A549 = tested on: A549
SK-OV-3 = tested on: SK-OV-3
SK-MEL-5 = tested on: SK-MEL-5
IGROV-1 = tested on: IGROV-1
SF-295 = tested on: SF-295

C=CCN1C(=O)/C(=C/c2ccc(OC)cc2)N=C1SC/C=C/C
GI50 (NCI-H226): 53.7 µM (inactive) | GI50 (UO-31): 32.1 µM (inactive) | GI50 (U-251): 35.1 µM (inactive) | GI50 (RXF 393): 16.6 µM (inactive) | GI50 (TK-10): > 100 µM (inactive) | GI50 (SF-268): 53.8 µM (inactive) | GI50 (HT-29): 33.7 µM (inactive) | GI50 (PC-3): 30.4 µM (inactive) | GI50 (OVCAR-4): 37.7 µM (inactive) | GI50 (SN12C): 19.5 µM (inactive) | GI50 (LOX IMVI): 31.6 µM (inactive) | GI50 (SW-620): 35.4 µM (inactive) | GI50 (Hs-578T): 50.1 µM (inactive) | GI50 (NCI-H522): 28.1 µM (inactive) | GI50 (MDA-MB-231): 57.8 µM (inactive) | GI50 (UACC-62): 42.8 µM (inactive) | GI50 (SNB-19): 34.4 µM (inactive) | GI50 (MDA-N): 26.7 µM (inactive) | GI50 (Malme-3M): 34.8 µM (inactive) | GI50 (UACC-257): 36.7 µM (inactive) | GI50 (HCC 2998): 63.2 µM (inactive) | GI50 (SK-MEL-2): 31.5 µM (inactive) | GI50 (K562): 42.5 µM (inactive) | GI50 (HOP-92): 24 µM (inactive) | GI50 (OVCAR-5): > 100 µM (inactive) | GI50 (NCI-H460): 61.9 µM (inactive) | GI50 (SNB-75): 31.2 µM (inactive) | GI50 (RPMI-8226): 26.2 µM (inactive) | GI50 (SR): 17.3 µM (inactive) | GI50 (HOP-62): > 100 µM (inactive) | GI50 (CAKI-1): 84.5 µM (inactive) | GI50 (HL-60): 20 µM (inactive) | GI50 (BT-549): 39.7 µM (inactive) | GI50 (NCI/ADR-RES): 39 µM (inactive) | GI50 (DU-145): 80 µM (inactive) | GI50 (MOLT-4): 20.3 µM (inactive) | GI50 (A498): 23.9 µM (inactive) | GI50 (OVCAR-8): 31.8 µM (inactive) | GI50 (SF-539): > 100 µM (inactive) | GI50 (M14): 54.7 µM (inactive) | GI50 (OVCAR-3): 74.1 µM (inactive) | GI50 (EKVX): 33.5 µM (inactive) | GI50 (COLO 205): 29.2 µM (inactive) | GI50 (HCT-15): 24.2 µM | GI50 (ACHN): 56.4 µM (inactive) | GI50 (HCT-116): 25.4 µM (inactive) | GI50 (T47D): 12.6 µM (inactive) | GI50 (KM12): 28.8 µM (inactive) | GI50 (SK-MEL-28): 87.7 µM (inactive) | GI50 (786-0): 34.7 µM (inactive) | GI50 (MCF7): 32.1 µM (inactive) | GI50 (NCI-H23): 41.5 µM (inactive) | GI50 (MDA-MB-435): 33.3 µM (inactive) | GI50 (CCRF-CEM): 26.4 µM (inactive) | GI50 (A549): 18.9 µM (inactive) | GI50 (SK-OV-3): > 100 µM (inactive) | GI50 (SK-MEL-5): 18.3 µM (inactive) | GI50 (IGROV-1): > 100 µM (inactive) | GI50 (SF-295): 41.3 µM (inactive)

C[C@H](CCC(=O)NN)[C@H]1CC[C@H]2[C@@H]3CC[C@@H]4C[C@H](O)CC[C@]4(C)[C@H]3CC[C@]12C
GI50 (NCI-H226): > 74.6 µM (inactive) | GI50 (UO-31): 51.9 µM (inactive) | GI50 (U-251): > 73.5 µM (inactive) | GI50 (RXF 393): 21.4 µM (inactive) | GI50 (TK-10): 38.3 µM (inactive) | GI50 (SF-268): 65.3 µM (inactive) | GI50 (HT-29): 27.7 µM (inactive) | GI50 (PC-3): 44.8 µM (inactive) | GI50 (OVCAR-4): > 67.1 µM (inactive) | GI50 (SN12C): 55.7 µM (inactive) | GI50 (LOX IMVI): 31.6 µM (inactive) | GI50 (SW-620): 71.8 µM (inactive) | GI50 (Hs-578T): > 100 µM (inactive) | GI50 (NCI-H522): 29.2 µM (inactive) | GI50 (MDA-MB-231): 40.8 µM (inactive) | GI50 (UACC-62): > 100 µM (inactive) | GI50 (SNB-19): 97.3 µM (inactive) | GI50 (MDA-N): 75.7 µM (inactive) | GI50 (Malme-3M): 52.1 µM (inactive) | GI50 (UACC-257): 61.7 µM (inactive) | GI50 (HCC 2998): 41.4 µM (inactive) | GI50 (SK-MEL-2): > 88.5 µM (inactive) | GI50 (K562): 14.7 µM (inactive) | GI50 (HOP-92): > 86.5 µM (inactive) | GI50 (OVCAR-5): > 88.3 µM (inactive) | GI50 (NCI-H460): 52.1 µM (inactive) | GI50 (RPMI-8226): 20.7 µM (inactive) | GI50 (SR): 18.6 µM (inactive) | GI50 (HOP-62): > 100 µM (inactive) | GI50 (CAKI-1): 46.3 µM (inactive) | GI50 (HL-60): 8.53 µM (inactive) | GI50 (BT-549): 57.8 µM (inactive) | GI50 (NCI/ADR-RES): 64.1 µM (inactive) | GI50 (DU-145): > 50.8 µM (inactive) | GI50 (MOLT-4): 10.4 µM (inactive) | GI50 (A498): 79.3 µM (inactive) | GI50 (OVCAR-8): 37.2 µM (inactive) | GI50 (SF-539): 84.1 µM (inactive) | GI50 (M14): 25.4 µM (inactive) | GI50 (OVCAR-3): 32 µM (inactive) | GI50 (EKVX): 43 µM (inactive) | GI50 (COLO 205): 31.6 µM (inactive) | GI50 (HCT-15): 39.7 µM | GI50 (ACHN): 54.8 µM (inactive) | GI50 (HCT-116): 41 µM (inactive) | GI50 (T47D): 24.8 µM (inactive) | GI50 (KM12): 39.2 µM (inactive) | GI50 (SK-MEL-28): > 74.8 µM (inactive) | GI50 (786-0): 36.4 µM (inactive) | GI50 (MCF7): 31.7 µM (inactive) | GI50 (NCI-H23): 41.2 µM (inactive) | GI50 (MDA-MB-435): 44.2 µM (inactive) | GI50 (CCRF-CEM): 12.3 µM (inactive) | GI50 (A549): 54.1 µM (inactive) | GI50 (SK-OV-3): > 100 µM (inactive) | GI50 (SK-MEL-5): 23.4 µM (inactive) | GI50 (IGROV-1): 83.4 µM (inactive) | GI50 (SF-295): > 68.2 µM (inactive)

CC(=O)Oc1ccc2c(c1)c1c(=O)oc(N(C)C)nc1n2Cc1ccccc1
GI50 (NCI-H226): > 80.4 µM (inactive) | GI50 (UO-31): 10.8 µM (inactive) | GI50 (U-251): 39 µM (inactive) | GI50 (RXF 393): 52.5 µM (inactive) | GI50 (TK-10): > 100 µM (inactive) | GI50 (SF-268): 37.1 µM (inactive) | GI50 (HT-29): 64 µM (inactive) | GI50 (PC-3): > 61.4 µM (inactive) | GI50 (OVCAR-4): 57.9 µM (inactive) | GI50 (SN12C): > 100 µM (inactive) | GI50 (LOX IMVI): 49.7 µM (inactive) | GI50 (SW-620): 81.1 µM (inactive) | GI50 (Hs-578T): > 53.3 µM (inactive) | GI50 (NCI-H522): 12.8 µM (inactive) | GI50 (MDA-MB-231): > 75.7 µM (inactive) | GI50 (UACC-62): 28.4 µM (inactive) | GI50 (SNB-19): > 100 µM (inactive) | GI50 (MDA-N): > 71.4 µM (inactive) | GI50 (Malme-3M): 47.9 µM (inactive) | GI50 (UACC-257): > 86.5 µM (inactive) | GI50 (HCC 2998): > 100 µM (inactive) | GI50 (SK-MEL-2): > 76.6 µM (inactive) | GI50 (K562): 39.4 µM (inactive) | GI50 (HOP-92): 19.5 µM (inactive) | GI50 (OVCAR-5): > 100 µM (inactive) | GI50 (NCI-H460): 52.2 µM (inactive) | GI50 (SNB-75): > 60.3 µM (inactive) | GI50 (RPMI-8226): > 65 µM (inactive) | GI50 (SR): 43.1 µM (inactive) | GI50 (HOP-62): > 59.3 µM (inactive) | GI50 (HL-60): 23.6 µM (inactive) | GI50 (BT-549): 37.2 µM (inactive) | GI50 (NCI/ADR-RES): 34.8 µM (inactive) | GI50 (DU-145): > 100 µM (inactive) | GI50 (MOLT-4): 34 µM (inactive) | GI50 (A498): > 41.1 µM (inactive) | GI50 (OVCAR-8): 57.8 µM (inactive) | GI50 (SF-539): > 71.9 µM (inactive) | GI50 (M14): > 78.7 µM (inactive) | GI50 (OVCAR-3): 55.1 µM (inactive) | GI50 (EKVX): > 100 µM (inactive) | GI50 (COLO 205): > 56.4 µM (inactive) | GI50 (HCT-15): 37.9 µM | GI50 (ACHN): 45.3 µM (inactive) | GI50 (HCT-116): 39.9 µM (inactive) | GI50 (T47D): 29.7 µM (inactive) | GI50 (KM12): 56.6 µM (inactive) | GI50 (SK-MEL-28): > 100 µM (inactive) | GI50 (786-0): 50.9 µM (inactive) | GI50 (MCF7): 25.2 µM (inactive) | GI50 (NCI-H23): 97.5 µM (inactive) | GI50 (MDA-MB-435): 46.2 µM (inactive) | GI50 (CCRF-CEM): 55.6 µM (inactive) | GI50 (A549): 48.4 µM (inactive) | GI50 (SK-OV-3): > 100 µM (inactive) | GI50 (SK-MEL-5): 42 µM (inactive) | GI50 (IGROV-1): > 95.1 µM (inactive) | GI50 (SF-295): 47.9 µM (inactive)
